The source of these data is patent US20090099195A1 (ASTRAZENECA AB, priority 2007, published 2009).

The target of this experiment is T1, hP2X3 (human Purinergic P2X receptors subtype 3), clone B (Homo sapiens, UniProt P56373).
T1 sequence (P56373 1-397): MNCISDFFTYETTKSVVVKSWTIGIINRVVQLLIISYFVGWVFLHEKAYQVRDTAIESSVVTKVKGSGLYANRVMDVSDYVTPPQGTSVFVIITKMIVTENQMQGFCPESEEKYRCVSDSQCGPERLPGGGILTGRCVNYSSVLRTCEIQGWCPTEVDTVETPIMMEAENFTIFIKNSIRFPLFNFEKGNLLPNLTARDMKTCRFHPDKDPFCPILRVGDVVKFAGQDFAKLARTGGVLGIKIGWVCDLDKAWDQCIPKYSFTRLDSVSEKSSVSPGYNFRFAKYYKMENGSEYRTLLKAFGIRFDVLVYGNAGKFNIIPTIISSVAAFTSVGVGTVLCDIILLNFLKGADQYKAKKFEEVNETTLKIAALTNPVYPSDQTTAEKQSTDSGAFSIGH
Briefly: hP2X3 FLIPR calcium (Fluo-4) antagonist assay, clone B. The conditions noted are these: Human P2X3 FLIPR Clone B IC50 (nM), RLE cells expressing hP2X3 clone B (NM_002559); agonist 500 nM α,β-methylene-ATP.

Method: The assay used a calcium indicator dye (Fluo-4) that emits fluorescence, the intensity of which is related to the concentration of calcium that entered the cell when P2X3 was activated and the channel opened. Activation of hP2X3 or rat P2X3 and rat P2X2/3 (from the coexpression of rat P2X3 and rat P2×2) is elicited the by P2X3 agonist α,β methylene-ATP (Sigma M6517), and the resulting fluorescence is measured with a FLIPR II™ instrument (Molecular Devices). Compounds are tested for their ability to inhibit the agonist-induced fluorescent signal.
For the rat P2X2/3 HEK-TREX cells, induction of the rat P2X3 expression is used to generate the rat P2X2/3 channels in HEK-TREX cells and performed by addition of 1 μg/mL tetracycline (Invitrogen) 24 h prior to compounds testing to the HEK-TREX expressing the rat P2X2 constitutively. On the day of the experiment, the cells and test compounds are prepared as follows. […] After preparing the compounds, the medium is removed from the cell plates by inversion. A loading solution of 30 μL assay buffer containing 4 μM of the calcium indicator dye FLUO-4 AM (Molecular Probes F14202) is added to each well using a Multidrop (Labsystems). […] The incubation is terminated by washing the cells four times in assay buffer using a Skatron Embla (Molecular Devices), and 25 μL of assay buffer was left in each well. Cell plates are then transferred to the FLIPR. Experiments are initiated by measuring a baseline fluorescence reading for 10 seconds, followed by the addition of 12.5 μL of cpds and data sampling for a total 280 seconds. The experiments are terminated by addition of 12.5 μL of a reference agonist (500 nM α,β-methylene-ATP) or buffer, producing a final assay volume of 50 μL followed by data sampling for an additional 280 seconds.
In P2X3 antagonist experiments (human and rat assays) data are analysed as normalised maximal peak fluorescence monitored following agonist addition and calculated as percent of relative fluorescent counts from control agonist. The dose-response antagonist inhibition curves are analyzed in a 4-parameter sigmoidal fit using a non-linear curve-fitting program (XLfit version 5.0.6, ID Business Solutions Limited, Guildford, UK).

As usually defined, the IC50 is the point on the concentration scale where inhibition reaches its midpoint. As for `CC(=O)N(C)C1CCN(c2nc(NC(C)(C)Cc3ccc(Cl)cc3)c3c(n2)C(=O)N(C(C)C)C3)C1` (stereo not drawn) [Example 67, N-[1-(4-{[2-(4-chlorophenyl)-1,1-dimethylethyl]amino}-6-isopropyl-7-oxo-6,7-dihydro-5H-pyrrolo[3,4-d]pyrimidin-2-yl)pyrrolidin-3-yl]-N-methylacetamide], the half-inhibitory concentration (IC50) came out at 450 nM. For `CC(=O)N(Cc1cc2ccccc2cn1)c1nc(N2CCN(C(C)=O)[C@@H](C)C2)nc2c1CN(C(C)C)C2=O` [Example 325, (S)—N-(2-(4-acetyl-3-methylpiperazin-1-yl)-6-isopropyl-7-oxo-6,7-dihydro-5H-pyrrolo[3,4-d]pyrimidin-4-yl)-N-(isoquinolin-3-ylmethyl)acetamide], the IC50 was found to be 380 nM. On to `CC(=O)N1CCN(c2nc(NC(C)(C)Cc3ccc(F)cc3)c3c(n2)C(=O)N(C(C)C(C)C)C3)CC1` (stereo not drawn) [Example 313, 2-(4-acetylpiperazin-1-yl)-4-(1-(4-fluorophenyl)-2-methylpropan-2-ylamino)-6-(3-methylbutan-2-yl)-5H-pyrrolo[3,4-d]pyrimidin-7(6H)-one], for which the half-inhibitory concentration (IC50) came to 280 nM. With `CC(=O)N1CCN(c2nc(NCc3cc4ccccc4n3C)c3c(n2)C(=O)N(C(C)C)C3)CC1` [Example 237, 2-(4-acetylpiperazin-1-yl)-6-isopropyl-4-((1-methyl-1H-indol-2-yl)methylamino)-5H-pyrrolo[3,4-d]pyrimidin-7(6H)-one] the figure was 500 nM; with `CC(=O)N1CCN(c2nc3c(c(N4CCCC4c4ccc(N(C)C)cc4)n2)CN(C(C)C)C3=O)CC1` (stereo not drawn) [Example 267, 4-(4-acetylpiperazin-1-yl)-2-[2-(4-dimethylaminophenyl)pyrrolidin-1-yl]-8-propan-2-yl-3,5,8-triazabicyclo[4.3.0]nona-1,3,5-trien-7-one], 480 nM; with `CC(C)N1Cc2c(NC(C)(C)Cc3ccc(Cl)cc3)nc(NCCCN3CCCC3=O)nc2C1=O` [Example 66, 4-{[2-(4-chlorophenyl)-1,1-dimethylethyl]amino}-6-isopropyl-2-{[3-(2-oxopyrrolidin-1-yl)propyl]amino}-5,6-dihydro-7H-pyrrolo[3,4-d]pyrimidin-7-one], 1400 nM.

Regarding `CC(=O)N1CCN(c2nc3c(c(N(C)Cc4cnc5ccccc5c4)n2)CN(C(C)C)C3=O)CC1` [Example 346, 2-(4-acetylpiperazin-1-yl)-6-isopropyl-4-(methyl(quinolin-3-ylmethyl)amino)-5H-pyrrolo[3,4-d]pyrimidin-7(6H)-one], the IC50 was determined as 47 nM. As to `CC(C)N1Cc2c(NC(c3ccccc3)c3ccc(Cl)cc3)nc(N(C)CCN(C)C)nc2C1=O` (stereo not drawn) [Example 19, 4-{[(4-chlorophenyl)(phenyl)methyl]amino}-2-[[2-(dimethylamino)ethyl](methyl)amino]-6-isopropyl-5,6-dihydro-7H-pyrrolo[3,4-d]pyrimidin-7-one], the IC50 is 93 nM. With `CC(C)N1Cc2c(NCc3cnc4ccccc4c3)nc(N3CCCC3CN3CCOCC3)nc2C1=O` (stereo not drawn) [Example 212, 6-isopropyl-2-[2-(morpholinomethyl)pyrrolidin-1-yl]-4-(3-quinolylmethylamino)-5H-pyrrolo[3,4-d]pyrimidin-7-one] the figure was 4600 nM; with `CC(=O)N1CCN(c2nc(NCc3ccc(-c4ccccc4)nc3)c3c(n2)C(=O)N(C(C)C)C3)CC1` [Example 228, 2-(4-acetylpiperazin-1-yl)-6-isopropyl-4-((6-phenylpyridin-3-yl)methylamino)-5H-pyrrolo[3,4-d]pyrimidin-7(6H)-one], 8800 nM. For the compound `CC(=O)N1CCN(c2nc3c(c(N4CCCCC4Cc4ccccc4)n2)CN(C(C)C)C3=O)CC1` (stereo not drawn) [Example 266, 4-(4-acetylpiperazin-1-yl)-2-(2-benzyl-1-piperidyl)-8-propan-2-yl-3,5,8-triazabicyclo[4.3.0]nona-1,3,5-trien-7-one], the IC50 amounted to 1000 nM. `CC(C)N1Cc2c(NC(c3ccc(F)cc3)c3ccc(F)cc3)nc(N(C)CCN(C)C)nc2C1=O` [Example 24, 4-{[bis(4-fluorophenyl)methyl]amino}-2-[[2-(dimethylamino)ethyl](methyl)amino]-6-isopropyl-5,6-dihydro-7H-pyrrolo[3,4-d]pyrimidin-7-one]: the 50% inhibitory concentration (IC50) was found to be 190 nM. With `CC(=O)N1CCN(c2nc(NC(C)(C)Cc3ccc(F)cc3)c3c(n2)C(=O)N(Cc2ccccc2Cl)C3)CC1` [Example 315, 2-(4-acetylpiperazin-1-yl)-6-(2-chlorobenzyl)-4-(1-(4-fluorophenyl)-2-methylpropan-2-ylamino)-5H-pyrrolo[3,4-d]pyrimidin-7(6H)-one] the figure was 3000 nM; with `CC(C)N1Cc2c(NC(c3ccccc3)c3ccccc3)nc(NCc3ccccc3)nc2C1=O` [Example 84, 4-(Benzhydryl-amino)-2-benzylamino-6-isopropyl-5,6-dihydro-pyrrolo[3,4-d]pyrimidin-7-one], 830 nM. Consider `CCOc1ccc(C(C)N(C)c2nc(N3CCN(C(C)=O)CC3)nc3c2CN(C(C)C)C3=O)cc1` (stereo not drawn) [Example 157, 2-(4-acetylpiperazin-1-yl)-4-((1-(4-ethoxyphenyl)ethyl)(methyl)amino)-6-isopropyl-5H-pyrrolo[3,4-d]pyrimidin-7(6H)-one], for which the half-maximal inhibitory concentration (IC50) stood at 390 nM.

`CC(=O)N1CCN(c2nc(NCc3noc(C4CCC4)n3)c3c(n2)C(=O)N(C(C)C)C3)CC1` [Example 278, 4-(4-acetylpiperazin-1-yl)-2-[(5-cyclobutyl-1,2,4-oxadiazol-3-yl)methylamino]-8-propan-2-yl-3,5,8-triazabicyclo[4.3.0]nona-1,3,5-trien-7-one]: the IC50 was determined as 750 nM.

With `COCCNc1nc2c(c(N3CCCC3Cc3ccc(Cl)cc3)n1)CN(C(C)C)C2=O` (stereo not drawn) [Example 44, 4-[2-(4-chlorobenzyl)pyrrolidin-1-yl]-6-isopropyl-2-[(2-methoxyethyl)amino]-5,6-dihydro-7H-pyrrolo[3,4-d]pyrimidin-7-one], the IC50 came out at 9600 nM. `CCN1CCN(c2nc(NC3c4cccnc4CCc4c(F)cccc43)c3c(n2)C(=O)N(C(C)C)C3)CC1` (stereo not drawn) [Example 120, 2-(4-ethylpiperazin-1-yl)-4-[(9-fluoro-10,11-dihydro-5H-benzo[4,5]cyclohepta[1,2-b]pyridin-5-yl)amino]-6-isopropyl-5,6-dihydro-7H-pyrrolo[3,4-d]pyrimidin-7-one]: the IC50 was determined as 1400 nM.

As to `CC(=O)N1CCN(c2nc(NCc3nc(-c4ccccc4)no3)c3c(n2)C(=O)N(C(C)C)C3)CC1` [Example 145, 4-(4-acetylpiperazin-1-yl)-2-[(3-phenyl-1,2,4-oxadiazol-5-yl)methylamino]-8-propan-2-yl-3,5,8-triazabicyclo[4.3.0]nona-1,3,5-trien-7-one], the half-inhibitory concentration (IC50) came to 3200 nM. `CC(=O)N1CCN(c2nc3c(c(N(Cc4ccccc4)Cc4ccc(Cl)cc4)n2)CN(C(C)C)C3=O)CC1` [Example 58, 2-(4-acetylpiperazin-1-yl)-4-[benzyl(4-chlorobenzyl)amino]-6-isopropyl-5,6-dihydro-7H-pyrrolo[3,4-d]pyrimidin-7-one]: the IC50 came out at 270 nM.

Turning to `CC(=O)N1CCN(c2nc(NCC3OCCc4ccccc43)c3c(n2)C(=O)N(C(C)C)C3)CC1` (stereo not drawn) [Example 205, 2-(4-acetylpiperazin-1-yl)-4-(isochoman-1-ylmethylamino)-6-isopropyl-5H-pyrrolo[3,4-d]pyrimidin-7(6H)-one], the IC50 came to 5300 nM.
